Measured values: US20240352145A1, “EFFICACY OF ANTI-TROP-2-SN-38 ANTIBODY DRUG CONJUGATES FOR THERAPY OF TUMORS RELAPSED/REFRACTORY TO CHECKPOINT INHIBITORS” (Immunomedics, Inc., priority 2016, published 2024)

Legend:
TNBC = assay: Phase I/II, TNBC cohort; format: in vivo, human
Description: Previous treatments included cyclophosphamide, doxorubicin, carboplatin, gemcitabine, capecitabine, eribulin, cisplatinum, anastrozole, vinorelbine, bevacizumab and tamoxifen.

[1] = SN-38 release at lysosomal pH; format: physicochemical; conditions: pH 5.3 at 37° C.
[2] = mouse, in vivo
urothelial cancer = assay: Phase I/II, urothelial cancer cohort; format: in vivo, human
SK-MES-1 = assay: In vitro cytotoxicity, SK-MES-1
Description: (§2) Cell lines, antibodies, and chemotherapeutics—All human cancer cell lines used in this study were purchased from the American Type Culture Collection.

[3] = Tolerability in Swiss-Webster mice; format: in vivo, mouse
[4] = tested on: BxPC-3 human pancreatic tumors; assay: BxPC-3 xenograft therapy; format: in vivo, mouse
Protocol: NCr female athymic nude (nu/nu) mice, 4 to 8 weeks old, and male Swiss-Webster mice, 10 weeks old, were purchased from Taconic Farms. Tolerability studies were performed in Cynomolgus monkeys (Macaca fascicularis; 2.5-4 kg male and female) by SNBL USA, Ltd. Animals were implanted subcutaneously with different human cancer cell lines. Tumor volume (TV) was determined by measurements in 2 dimensions using calipers, with volumes defined as: L×w^2/2, where L is the longest dimension of the tumor and w is the shortest. […] This dosing frequency reflected a consideration of the conjugate's serum half-life […], to allow a more continuous exposure to the ADC.
Statistics—Growth curves are shown as percent change in initial TV over time. Statistical analysis of tumor growth was based on area under the curve (AUC). Profiles of individual tumor growth were obtained through linear-curve modeling. An f-test was employed to determine equality of variance between groups before statistical analysis of growth curves. A 2-tailed t-test was used to assess statistical significance between the various treatment groups and controls, except for the saline control, where a 1-tailed t-test was used (significance at P≤0.05). Statistical comparisons of AUC were performed only up to the time that the first animal within a group was euthanized due to progression.

Capan-1 = assay: In vitro cytotoxicity, Capan-1
Description: as §2

[5] = tested on: triple-negative breast cancer
recombinant mouse Trop-2 = target: T1, recombinant mouse Trop-2 (Mus musculus, UniProt Q8BGV3); assay: Trop-2 ELISA, murine; format: binding
T1 construct: purchased Sino Biological, Inc. 50922-M08H
T1 sequence (Q8BGV3 25-317): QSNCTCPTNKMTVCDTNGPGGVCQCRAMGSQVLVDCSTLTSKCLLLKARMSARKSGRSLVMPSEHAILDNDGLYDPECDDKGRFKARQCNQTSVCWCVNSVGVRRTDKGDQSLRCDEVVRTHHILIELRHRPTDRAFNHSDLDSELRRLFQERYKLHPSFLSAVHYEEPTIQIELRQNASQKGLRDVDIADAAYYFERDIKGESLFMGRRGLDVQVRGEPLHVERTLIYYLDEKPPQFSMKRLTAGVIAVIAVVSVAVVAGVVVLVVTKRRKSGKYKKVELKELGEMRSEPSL
Protocol: (§1) Trop-2 ELISA—Recombinant human Trop-2 with a His-tag (Sino Biological, Inc., Bejing, China; Cat #10428-H09H) and recombinant mouse Trop-2 with a His-Tag (Sino Biological, Inc., Cat #50922-M08H) were plated onto Ni-NTA Hissorb strips (Qiagen GmbH Cat #35023) at 1 μg for 1 h at room temperature. The plate was washed four times with PBS-Tween (0.05%) wash buffer. Serial dilutions of hRS7 were made in 1% BSA-PBS dilution buffer to a test range of 0.1 ng/mL to 10 μg/mL. The plates were then incubated for 2 h at room temperature before being washed four times followed by the addition of a peroxidase conjugated secondary antibody (goat anti-human, Fc fragment specific; Jackson Immunoresearch Cat #109-036-098). After a 45-min incubation, the plate was washed and a substrate solution (o-phenylenediamine dihydrochloride (OPD); Sigma, Cat #P828) added to all the wells. Plates were incubated in the dark for 15 min before the reaction was stopped with 4N sulfuric acid. The plates were read at 450 nm on Biotek ELX808 plate reader. Data were analyzed and graphed using Prism GraphPad Software (v4.03) (Advanced Graphics Software, Inc.; Encinitas, CA).

Trop-2 = target: T2, Trop-2 (Homo sapiens, UniProt P09758); assay: Trop-2 ELISA, human; format: binding; parameters: purchased Sino Biological, Inc. 10428-H09H
T2 sequence (P09758 27-323): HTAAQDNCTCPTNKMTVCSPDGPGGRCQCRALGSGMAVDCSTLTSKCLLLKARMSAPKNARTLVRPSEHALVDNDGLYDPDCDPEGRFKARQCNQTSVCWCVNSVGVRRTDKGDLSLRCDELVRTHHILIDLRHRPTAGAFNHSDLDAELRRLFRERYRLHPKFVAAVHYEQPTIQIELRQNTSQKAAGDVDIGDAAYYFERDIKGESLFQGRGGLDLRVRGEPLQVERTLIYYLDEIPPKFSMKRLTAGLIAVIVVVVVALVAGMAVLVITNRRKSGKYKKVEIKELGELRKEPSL
Protocol: as §1

Substance: IMMU-132
- confirmed complete responses (CR), patients (TNBC; 10 mg/kg): 2
- partial responses (PR), patients (TNBC; 10 mg/kg): 13
- stable disease (SD), patients (TNBC; 10 mg/kg): 25
- objective response rate (TNBC; 15/52): 29%
- favorable response rate (CR plus PR plus SD) (TNBC; in vivo): 71%
- median time to progression (TNBC; in vivo): 9.4 months
- time for release of 50% of the SN-38 [1]: ~13 h
- clearance vs unconjugated IgG [2]: no significant difference in the clearance
- PR, patients (urothelial cancer; 11 assessable patients, 8 or 10 mg/kg): 6
- median time to progression (urothelial cancer; in vivo): 8.1 months
- IC50 (SK-MES-1): 23.1 nM
- hematopoietic toxicity ([3]; 2 doses of 4, 8, 12 mg SN-38/kg): No hematopoietic toxicity occurred
- tolerability, weight loss ([3]; 2 doses over 3 days, each of 4, 8, and 12 mg SN-38/kg): minimal transient weight loss
- aspartate transaminase (AST) ([3]; mouse, in vivo): > 298 U/L
- liver histology ([3]; mouse, in vivo): did not show histologic evidence of tissue damage
- mice with slightly elevated glucose ([3]; mouse, in vivo): 5 of 7
- MTD, cumulative dose over 1 week ([3]; normal mice, no acute toxicity): > 24 mg/kg SN-38
- tumor volume (TV) ([4]; day 21, equivalent amounts of ADC): 0.24±0.11 cm^3
- tumor volume (TV) ([4]; day 25): 0.27±0.18 cm^3
- IC50 (Capan-1): 6.99 nM
- decrease in sum of long diameter of target lesions ([5]; after 3 therapy cycles, 12 mg/kg then 9 mg/kg): 43%
- response ([5]; first response assessment): partial response by RECIST criteria

Substance: hRS7 IgG
- cross-reactivity (recombinant mouse Trop-2): no cross-reactivity with the murine Trop-2
- Kd (Trop-2): 0.3 nM
